Measured values reported in US20090170882A1, “Methods and compositions” (priority 2004, published 2009).

Key:
[1] = system: tumor cell lines including SKOV3 and Colo205; test: Inhibition of cellular proliferation in tumor cell lines (MTS, 48 hours); type: cell-based, human; conditions: various tumor cell lines including SKOV3 and Colo205; 'typically'
Experimental: Cells were plated in 96-well plates at densities from 1000-2500 cells/well of a 96-well plate and allowed to adhere/grow for 24 hours. They were then treated with various concentrations of drug for 48 hours. The time at which compounds are added is considered T0. A tetrazolium-based assay using the reagent 3-(4,5-dimethylthiazol-2-yl)-5-(3-carboxymethoxyphenyl)-2-(4-sulfophenyl)-2H-tetrazolium (MTS) (U.S. Pat. No. 5,185,450) (see Promega product catalog #G3580, CellTiter 96® AQueous One Solution Cell Proliferation Assay) was used to determine the number of viable cells at T0 and the number of cells remaining after 48 hours compound exposure. The number of cells remaining after 48 hours was compared to the number of viable cells at the time of drug addition, allowing for calculation of growth inhibition.
The growth over 48 hours of cells in control wells that had been treated with vehicle only (0.25% DMSO) is considered 100% growth and the growth of cells in wells with compounds is compared to this.
An IC50 was calculated by plotting the concentration of compound in μM vs the percentage of cell growth of cell growth in treated wells. The IC50 calculated for the compounds is the estimated concentration at which growth is inhibited by 50% compared to control, i.e., the concentration at which:
All concentrations of compounds are tested in duplicate and controls are averaged over 12 wells. A very similar 96-well plate layout and IC50 calculation scheme is used by the National Cancer Institute (see Monks, et al., J. Natl. Cancer Inst. 83:757-766 (1991)).

[2] = target: T1, KSP motor domain (Homo sapiens, UniProt P52732); test: KSP ATPase assay (IC50 for KSP activity); type: biochemical
T1 construct: 100 nM KSP motor domain, 50 μg/ml microtubules
T1 sequence (P52732 18-359 limits assumed): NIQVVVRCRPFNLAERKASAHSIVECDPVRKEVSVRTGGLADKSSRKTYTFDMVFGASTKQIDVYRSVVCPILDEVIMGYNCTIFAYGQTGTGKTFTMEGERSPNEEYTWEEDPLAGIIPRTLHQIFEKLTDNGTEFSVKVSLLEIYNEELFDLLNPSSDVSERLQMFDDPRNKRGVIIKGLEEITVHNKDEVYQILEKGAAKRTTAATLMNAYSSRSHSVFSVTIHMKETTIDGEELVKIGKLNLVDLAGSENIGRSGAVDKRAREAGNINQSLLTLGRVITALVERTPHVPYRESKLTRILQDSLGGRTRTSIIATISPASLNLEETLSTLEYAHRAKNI
Experimental: One measure of inhibition is IC50, defined as the concentration of the composition at which the activity of KSP is decreased by fifty percent relative to a control. Preferred compositions have […] of less than about 1 mM, with preferred embodiments having IC50's of less than about 100 μM, with more preferred embodiments having IC50's of less than about 10 μM, with particularly preferred embodiments having IC50's of less than about 1 μM, and especially preferred embodiments having IC50's of less than about 100 nM, and with the most preferred embodiments having IC50's of less than about 10 nM. Measurement of IC50 is done using an ATPase assay.
Measurement of a composition's IC50 for KSP activity uses an ATPase assay. The following solutions are used: Solution 1 consists of 3 mM phosphoenolpyruvate potassium salt (Sigma P-7127), 2 mM ATP (Sigma A-3377), 1 mM DTT (Sigma D-9779), 5 μM paclitaxel (Sigma T-7402), 10 ppm antifoam 289 (Sigma A-8436), 25 mM Pipes/KOH pH 6.8 (Sigma P6757), 2 mM MgC12 (VWR JT400301), and 1 mM EGTA (Sigma E3889). Solution 2 consists of 1 mM NADH (Sigma N8129), 0.2 mg/ml BSA (Sigma A7906), pyruvate kinase 7 U/ml, L-lactate dehydrogenase 10 U/ml (Sigma P0294), 100 nM KSP motor domain, 50 μg/ml microtubules, 1 mM DTT (Sigma D9779), 5 μM paclitaxel (Sigma T-7402), 10 ppm antifoam 289 (Sigma A-8436), 25 mM Pipes/KOH pH 6.8 (Sigma P6757), 2 mM MgC12 (VWR JT4003-01), and 1 mM EGTA (Sigma E3889). Serial dilutions (8-12 two-fold dilutions) of the composition are made in a 96-well microtiter plate (Corning Costar 3695) using Solution 1. Following serial dilution each well has 50 μl of Solution 1. The reaction is started by adding 50 μl of solution 2 to each well. This may be done with a multichannel pipettor either manually or with automated liquid handling devices. The microtiter plate is then transferred to a microplate absorbance reader and multiple absorbance readings at 340 nm are taken for each well in a kinetic mode. The observed rate of change, which is proportional to the ATPase rate, is then plotted as a function of the compound concentration. For a standard IC50 determination the data acquired is fit by the following four parameter equation using a nonlinear fitting program (e.g., Grafit 4): […]
where y is the observed rate and x the compound concentration. […] By this we mean that although most of the compounds that inhibited KSP activity biochemically did inhibit cell proliferation, for some, at the highest concentration tested (generally about 20 μM), cell growth was inhibited less than 50%. […] Anti-proliferative compounds that have been successfully applied in the clinic to treatment of cancer (cancer chemotherapeutics) have IC50's that vary greatly. […]

[3] = system: A549 cells; conditions: data provided by National Cancer Institute, Developmental Therapeutic Program; cited from earlier work

| IC50 for inhibition of proliferation of tumor cell lines [1] | IC50 for inhibition of KSP [2] | SMILES | IC50 [3] |
| --- | --- | --- | --- |
| not active | not active | CS(=O)(=O)Nc1ccc2[nH]c3ccc(C(F)(F)F)cc3c2c1 [6-(trifluoromethyl-9H-carbazol-3-yl)-methanesulfonamide] |  |
| not active | not active | CS(=O)(=O)Nc1cccc2c1[nH]c1ccc(C(F)(F)F)cc12 [N-[6-(trifluoromethyl)-9H-carbazol-1-yl]methanesulfonamide] |  |
| not active | not active | NC(=O)Nc1ccc2[nH]c3ccc(C(F)(F)F)cc3c2c1 [(6-Trifluoromethyl-9H-carbazol-3-yl)-urea] |  |
| not active | not active | Nc1cccc2c1[nH]c1ccc(C(F)(F)F)cc12 [6-(trifluoromethyl)-9H-carbazol-1-ylamine] |  |

Continued, molecule first:

| SMILES | IC50 for inhibition of proliferation of tumor cell lines [1] | IC50 for inhibition of KSP [2] | IC50 [3] |
| --- | --- | --- | --- |
| COc1cccc2c1C(=O)c1c(O)c3c(c(O)c1C2=O)C[C@@](O)(C(=O)CO)C[C@@H]3O[C@H]1C[C@H](N)[C@H](O)[C@H](C)O1 [doxorubicin] |  |  | 63 nM |
| CC(=O)O[C@H]1C(=O)[C@@]2(C)[C@H]([C@H](OC(=O)c3ccccc3)[C@]3(O)C[C@H](OC(=O)[C@H](O)[C@@H](NC(=O)c4ccccc4)c4ccccc4)C(C)=C1C3(C)C)[C@]1(OC(C)=O)CO[C@@H]1C[C@@H]2O [paclitaxel] |  |  | 4 nM |
| NC(=O)NO [hydroxyurea] |  |  | 500000 nM |
| O=c1[nH]cc(F)c(=O)[nH]1 [5-fluorouracil] |  |  | 1000 nM |
